Measured values as given in patent publication EP0428132A1, “Pradimicin derivatives” (Bristol-Myers Squibb Company, priority 1989, dated 1991).
In brackets after ≈: the same amount, converted by molar mass.

How the values were obtained:
Test in all cases: In vitro antifungal activity, serial agar dilution method (Table 1a)
Format in all cases: cell-based
[1] = system: Trichophyton mentagrophytes A26771; conditions: A26771, YM agar (pH 7.0, Difco), 30°C for 2 days (yeast) or 4 days (filamentous fungi), read-out: MICs, Trichophyton mentagrophytes A26771
Method: (§1) The inoculum size was adjusted to 10⁶ cells/ml, and a volume of approximately 0.003 ml of fungal suspension was applied to the surface of the antibiotic containing agar plates with a multiinoculator. After incubation, the lowest concentration of antibiotic causing virtually complete inhibition of fungal growth was determined as the minimum inhibitory concentration (MIC).

[2] = system: Candida tropicalis A25812; conditions: A25812, YM agar (pH 7.0, Difco), 30°C for 2 days (yeast) or 4 days (filamentous fungi), read-out: MICs, Candida tropicalis A25812
Method: as §1

[3] = system: Microsporum gypseum WW1107; conditions: Nannizzia gypsea, YM agar (pH 7.0, Difco), 30°C for 2 days (yeast) or 4 days (filamentous fungi), read-out: MICs, Microsporum gypseum WW1107
Method: as §1

Candida albicans A9540 = conditions: A9540, YM agar (pH 7.0, Difco), 30°C for 2 days (yeast) or 4 days (filamentous fungi), read-out: MICs, Candida albicans A9540
Method: as §1

[4] = system: Candida pseudotropicalis A25802; conditions: Kluyveromyces marxianus, YM agar (pH 7.0, Difco), 30°C for 2 days (yeast) or 4 days (filamentous fungi), read-out: MICs, Candida pseudotropicalis A25802
Method: as §1

[5] = system: Cryptococcus neoformans A15053; conditions: A15053, YM agar (pH 7.0, Difco), 30°C for 2 days (yeast) or 4 days (filamentous fungi), read-out: MICs, Cryptococcus neoformans A15053
Method: as §1

[6] = system: Trichophyton rubrum A26761; conditions: A26761, YM agar (pH 7.0, Difco), 30°C for 2 days (yeast) or 4 days (filamentous fungi), read-out: MICs, Trichophyton rubrum A26761
Method: as §1

Candida albicans A25578 = conditions: A25578, YM agar (pH 7.0, Difco), 30°C for 2 days (yeast) or 4 days (filamentous fungi), read-out: MICs, Candida albicans A25578
Method: as §1

CN[C@@H]1[C@H](O[C@@H]2OC[C@@H](O)[C@H](O)[C@H]2O)[C@@H](O)[C@H](O[C@H]2c3cc(C)c(C(=O)N[C@H](C)C(=O)O)c(O)c3-c3c(cc4c(c3O)C(=O)c3cc(OC)cc(O)c3C4=O)[C@@H]2O)O[C@@H]1C [Pradimicin A, reference compound]
MIC [1]: 6.3 µg/mL (≈ 7.49 µM) | MIC [2]: > 50 µg/mL | MIC [3]: 12.5 µg/mL (≈ 14.9 µM) | MIC (Candida albicans A9540): > 50 µg/mL | MIC [4]: 3.2 µg/mL (≈ 3.81 µM) | MIC [5]: 0.4 µg/mL (≈ 0.476 µM) | MIC [6]: 6.3 µg/mL (≈ 7.49 µM) | MIC (Candida albicans A25578): 3.2 µg/mL (≈ 3.81 µM)
